The numbers were not newly measured in US20070041998A1, “Use of alum and a th1 immune response inducing adjuvant for enhancing immune responses” (Intercell AG, priority 2003, published 2007), which cites them from elsewhere.

The test system of one data set is Staphylococcus aureus. To be noted: Staphylococcus aureus-infected mice.
Another data set relates to human neutrophils. To be noted: via cell surface calreticulin.

Where no end group is shown, it is not given here.

On to “KLKLLLLLKLK-NH2 [synthetic antimicrobial peptide (Nakajima 1997; Cho 1999)]”, for which the chemotherapeutic activity entry with Staphylococcus aureus is given as “significant chemotherapeutic activity”. For the same substance, in the data set on human neutrophils, the “production of superoxide anion (O2−)” value was “activated to produce the superoxide anion”.
